For orientation: ILS means how much longer treated animals lived than controls.

In brackets after ≈: the same amount, converted by molar mass.

We go through 17 molecules from patent US4912227A, “1,2,8,8A-tetrahydrocyclopropa(c)pyrrolo(3,2-e)-indol-4-(5H)-ones and related compounds” (The Upjohn Company, priority 1985, dated 1990).

Series [1] deals with murine L1210 tumor cells. The experiment in a line: cytotoxic activity against murine L1210 tumor cells in suspension (3-day cell growth). Format: cell-based. Conditions: for IC50 / IC90: Mus musculus, 72 h; for IC50: read-out: L-1210 (3-Day Cell Growth) ID50; for IC90: read-out: L-1210 (3-Day Cell Growth) ID90. The method, then: Many of the compounds of the subject invention have useful cytotoxic activity against murine L1210 tumor cells in suspension, which is a standard model for such tests before the compounds are tested in humans. […] Following is a table showing the results of testing various compounds against L1210 in suspension using standard, well-known procedures. The compounds are identified by an internal designation called "U-" number. The structural identify of the "U-" numbered compounds is shown in Chart I.

In series [2] the test system is Bacillus subtilis. The experiment in a line: antimicrobial activity.
Series [3] deals with Klebsiella pneumonia. The series can be described thus: antimicrobial activity.
The test system of series [4] is Sarcina lutea. The experiment in a line: antimicrobial activity.
For series [5], the system named is Escherichia coli. The series can be described thus: antimicrobial activity.
Series [6] has as its system Proteus vulgaris. The series can be described thus: antimicrobial activity.
Series [7] has as its system Staphylococcus aureus. The series can be described thus: antimicrobial activity.
Series [8] concerns Salmonella schottmeulerri. The experiment in a line: antimicrobial activity.
Series [9] has as its system Mycobacterium avium. The experiment in a line: antimicrobial activity.
Series [10] concerns Saccharomyces pastorianus. The experiment in a line: antimicrobial activity.
Series [11] concerns Penicillium oxalicum. The series can be described thus: antimicrobial activity.
Series [12] concerns P388 leukemia. The series can be described thus: antitumor activity in P388 leukemic mice, intraperitoneal. Format: in vivo. As to conditions: for ILS at 0.1 mg/kg: at 0.10 mg./kg. From the text:
These murine test systems are predictive for clinically useful human antitumor agents (see, for example, A. Geldin, J. M. Vendetti, J. S. MacDonald, F. M. Muggia, J. E. Henney and V. T. DeVita, European J. Cancer, Vol. 17, pp. 129-142, 1981; J. M. Vendetti, Cancer Treatment Reports, Vol. 67, pp. 767-772, 1983; and J. M. Vendetti, R. A. Wesley, and J. Plowman, Advances in Pharmacology and Chemotherapy, Vol. 20, pp. 1-20, 1984), and it is therefore presumed that the compounds of the subject invention will be useful in the control and treatment of cancer in humans when given, for example, intravenously in doses of 0.001 to about 10 mg. per kg. of body weight per day, the exact dose depending on the age, weight and condition of the patient, and on the frequency of administration. Following is a table showing the results of testing various compounds intraperitoneally against P388 leukemic mice using standard well-known procedures (In Vivo cancer, Models, NIH Publication No. 84-2635, 1984). The structural identify of the "U-" numbered compounds is shown in Chart I. In the table %ILS refers to percent increase in life span of treated animals over controls.

The test system of series [13] is B16 melanoma. The experiment in a line: B16 melanoma implanted subcutaneously in mice, single intravenous dose. Format: in vivo. An excerpt:
(§1) These characteristics are advantageous for antitumor agents.

Series [14] concerns M5076 ovarian sarcoma. The series can be described thus: lifespan of mice implanted with M5076 ovarian sarcoma. Format: in vivo.
From the text: as §1

The subject of series [15] is Lewis carcinoma. The experiment in a line: lifespan of mice implanted with Lewis carcinoma. Format: in vivo.
From the text: as §1

For series [16], the system named is human lung tumor (Lx-1 carcinoma). The series can be described thus: human lung tumor (Lx-1 carcinoma) xenograft in nude mice. Format: in vivo.
From the text: as §1
A general note: Xenograft models place foreign cells or tissue in a host animal.

Series [17] relates to solid tumors. The experiment in a line: activity against solid tumors. On the set-up: species or system mice. Conditions: mouse, in vivo.
From the text: as §1

Series [18] can be described thus: solubility in aqueous solution. Format: physicochemical.
Series [19] in a line: stability in aqueous solution. Format: physicochemical.
Setting [20] is: Mus musculus, P388, ip, read-out: P388 % ILS (percent increase in life span over controls).

Regarding `Cc1c[nH]c2c1C13CC1CN(S(C)(=O)=O)C3=CC2=O` (stereo not drawn) [U-62,736], in [1], the “L-1210 (3-Day Cell Growth) ID50” value is 39 ng/mL and the “L-1210 (3-Day Cell Growth) ID90” value was 180 ng/mL.
In the case of `CC(=O)N1CC2CC23C1=CC(=O)c1[nH]cc(C)c13` (stereo not drawn) [U-66,664], in series [1], the IC50 was found to be 4.8 ng/mL (≈ 19.8 nM) and the IC90 stood at 18 ng/mL (≈ 74.3 nM).
For `CC(=O)N1CC(COS(C)(=O)=O)c2c1cc(O)c1[nH]cc(C)c21` (stereo not drawn) [U-66,665], in series [1], the IC50 turned out to be 9 ng/mL (≈ 26.6 nM) and the IC90 worked out at 32 ng/mL (≈ 94.6 nM). In addition, the “activity against Bacillus subtilis” value in [2] is on record as “have activity against”. Further, the “activity against Klebsiella pneumonia” value in series [3] is on record as “have activity against”. In [4], the “activity against Sarcina lutea” value is “have activity against”. In addition, the “activity against Escherichia coli” value in [5] was “have activity against”. Moreover, the “activity against Proteus vulgaris” value in series [6] is on record as “have activity against”. Further, the “activity against Staphylococcus aureus” value in series [7] is “have activity against”. Further, the “activity against Salmonella schottmeulerri” value in series [8] was “have activity against”. The “activity against Mycobacterium avium” value in series [9] is “have activity against”. Moreover, in [10], the “activity against Saccharomyces pastorianus” value was “have activity against”. Moreover, the “activity against Penicillium oxalicum” value in series [11] is reported as “have activity against”.
Regarding `Cc1c[nH]c2c1C13CC1CN(C(=O)c1cc4ccccc4[nH]1)C3=CC2=O` (stereo not drawn) [U-66,694, 1,2,8,8a-tetrahydro-7-methyl-2-(1H-indol-2-ylcarbonyl)cyclopropa[c]pyrrolo(3,2-c]indol-4(5H)-one], in series [1], the IC50 is 0.15 ng/mL (≈ 0.437 nM) and the IC90 is 0.34 ng/mL (≈ 0.99 nM). The ILS at 0.63 mg/kg in series [12] (Mus musculus, P388, ip, at 0.63 mg./kg., read-out: P388 % ILS (percent increase in life span over controls)) was determined as 164%. Also, the “activity against Bacillus subtilis” value in [2] was “have activity against”. Besides, the “activity against Klebsiella pneumonia” value in series [3] is reported as “have activity against”. Further, in series [4], the “activity against Sarcina lutea” value is given as “have activity against”. The “activity against Escherichia coli” value in series [5] is “have activity against”. Also, in series [6], the “activity against Proteus vulgaris” value is recorded as “have activity against”. Besides, the “activity against Staphylococcus aureus” value in [7] is reported as “have activity against”. Besides, the “activity against Salmonella schottmeulerri” value in series [8] was “have activity against”. Moreover, the “activity against Mycobacterium avium” value in series [9] is “have activity against”. Also, the “activity against Saccharomyces pastorianus” value in series [10] is reported as “have activity against”. In addition, in [11], the “activity against Penicillium oxalicum” value is on record as “have activity against”.
As for `Cc1c[nH]c2c1C13CC1CNC3=CC2=O` (stereo not drawn) [U-66,777], in series [1], the IC50 turned out to be 180 ng/mL (≈ 899 nM) and the IC90 amounted to 920 ng/mL (≈ 4590 nM).
On to `Cc1c[nH]c2c1C13CC1CN(C(=O)c1ccccc1)C3=CC2=O` (stereo not drawn) [U-66,866, 1,2,8,8a-tetrahydro-7-methyl-2-benzoylcyclopropa[c]pyrrolo[3,2-e]indol-4(5H)-one], for which, in [1], the IC50 turned out to be 1.5 ng/mL (≈ 4.93 nM) and the IC90 was determined as 4.5 ng/mL (≈ 14.8 nM). Also, the increase in life span (ILS) at 12 mg/kg in series [12] (Mus musculus, P388, ip, at 12 mg./kg., read-out: P388 % ILS (percent increase in life span over controls)) came out at 71%.
Regarding `COc1c(O)ccc2cc(C(=O)N3CC4CC45C3=CC(=O)c3[nH]cc(C)c35)[nH]c12` (stereo not drawn) [U-67,785, 1,2,8,8a-tetrahydro-7-methyl-2-[(6-hydroxy-7-methoxy-1H-indol-2-yl)carbonyl]cyclopropa[c]pyrrolo[3,2-e]indol-4(5H)-one], in [1], the IC50 stood at 0.072 ng/mL (≈ 0.185 nM) and the IC90 was 0.19 ng/mL (≈ 0.488 nM). In series [12] (Mus musculus, P388, ip, at 0.06 mg./kg., read-out: P388 % ILS (percent increase in life span over controls)), the ILS at 0.06 mg/kg was found to be 60%.
Consider `COc1ccc2[nH]c(C(=O)N3CC4CC45C3=CC(=O)c3[nH]cc(C)c35)cc2c1` (stereo not drawn) [U-67,786], for which, in series [1], the IC50 stood at 0.046 ng/mL (≈ 0.123 nM) and the IC90 was 0.1 ng/mL (≈ 0.268 nM).
For `Cc1c[nH]c2c1C13CC1CN(C(=O)c1cc4cc(NC(=O)c5cc6ccccc6[nH]5)ccc4[nH]1)C3=CC2=O` (stereo not drawn) [U-68,415], in series [1], the IC50 is 0.018 ng/mL (≈ 0.0359 nM) and the IC90 amounted to 0.044 ng/mL (≈ 0.0877 nM). The P388 cures in series [12] (at 0.05 mg./kg.) is given as 4/6.
`Cc1c[nH]c2c1C13CC1CN(C(=O)c1ccc4ccccc4n1)C3=CC2=O` (stereo not drawn) [U-68,749, 1,2,8,8a-tetrahydro-7-methyl-2-(quinolinylcarbonyl)cyclopropa[c]pyrrolo[3,2-e]indol-4(5H)-one]: in [1], the IC50 is 3.4 ng/mL (≈ 9.57 nM) and the IC90 amounted to 8.4 ng/mL (≈ 23.6 nM).
With `Cc1c[nH]c2c1C13CC1CN(C(=O)c1ccc[nH]1)C3=CC2=O` (stereo not drawn) [U-68,819, 1,2,8,8a-tetrahydro-7-methyl-2-(2-pyrrolylcarbonyl)cyclopropa[c]pyrrolo[3,2-e]indol-4(5H)-one], in [1], the IC50 was found to be 0.48 ng/mL (≈ 1.64 nM) and the IC90 was 1.5 ng/mL (≈ 5.11 nM). For the same molecule, the ILS at 1 mg/kg in series [12] (Mus musculus, P388, ip, at 1 mg./kg., read-out: P388 % ILS (percent increase in life span over controls)) stood at 71%.
For the molecule `Cc1c[nH]c2c1C13CC1CN(C(=O)c1cc4cc(NC(=O)c5ccccc5)ccc4[nH]1)C3=CC2=O` (stereo not drawn) [U-68,846, 1,2,8,8a-tetrahydro-7-methyl-2-[[5-benzoylamino-1H-indol-2-yl]carbonyl]cyclopropa[c]pyrrolo[3,2-e]indol-4(5H)-one], in series [1], the IC50 amounted to 0.034 ng/mL (≈ 0.0735 nM) and the IC90 is 0.096 ng/mL (≈ 0.208 nM). In series [12] (Mus musculus, P388, ip, at 0.05 mg./kg., read-out: P388 % ILS (percent increase in life span over controls)), the ILS at 0.05 mg/kg stood at 82%.
For `Cc1c[nH]c2c1C13CC1CN(C(=O)c1cc4cc(NC(=O)c5cc6cc(NC(=O)c7ccccc7)ccc6[nH]5)ccc4[nH]1)C3=CC2=O` (stereo not drawn) [U-68,880], in series [1], the IC50 is 0.008 ng/mL (≈ 0.0129 nM) and the IC90 came out at 0.019 ng/mL (≈ 0.0306 nM). Moreover, the ILS at 0.1 mg/kg in series [12] (setting [20]) came to 71%.
On to `Cc1c[nH]c2c1C13CC1CN(C(=O)c1cc4cc(NC#N)ccc4[nH]1)C3=CC2=O` (stereo not drawn) [U-69,058, (1,2,8,8a)-tetrahydro-7-methyl-2-2[[5-cyanoamino-1H-indol-2-yl]carbonyl]cyclopropa[c]pyrrolo[3,2-e]indol-4(5H)-one], for which the increase in life span (ILS) at 0.5 mg/kg in series [12] (Mus musculus, P388, ip, at 0.50 mg./kg., read-out: P388 % ILS (percent increase in life span over controls)) stood at 96%.
Turning to `Cc1c[nH]c2c1C13CC1CN(C(=O)c1cc4cc(NC(N)=O)ccc4[nH]1)C3=CC2=O` (stereo not drawn) [U-69,059, 1,2,8,8a-tetrahydro-7-methyl-2-[[5-ureido-1H-indol-2-yl]carbonyl]cyclopropa[c]pyrrolo[3,2-e]indol-4(5H)-one], the P388 cures in [12] (at 0.5 mg./kg.) is listed as 4/6.
Turning to `Cc1c[nH]c2c1C13CC1CN(C(=O)c1cc4cc(NC(=O)c5cc6cc(NC(N)=O)ccc6[nH]5)ccc4[nH]1)C3=CC2=O` (stereo not drawn) [U-69,060, 1,2,8,8a-tetrahydro-7-methyl-2-[[5-[[[5-ureido-1H-indol-2-yl]carbonyl]amino]-1H-indol-2-yl]carbonyl]cyclopropa[c]pyrrolo[3,2-a]indol-4(5H)-one], in series [12] (setting [20]), the ILS at 0.1 mg/kg came to 138%.
`Cc1c[nH]c2c1[C@@]13C[C@@H]1CN(C(=O)c1cc4cc(NC(=O)c5cc6ccccc6o5)ccc4[nH]1)C3=CC2=O` [U-73,975]: the “increase in life span over control (non-drug treated) animals” value in series [13] is 61%. The “lifespan of mice implanted with M5076 ovarian sarcoma” value in series [14] is reported as “significantly increased the lifespan”. Moreover, the “lifespan of mice implanted with Lewis carcinoma” value in series [15] was “significantly increased the lifespan”. Further, the “growth inhibition of human lung tumor (Lx-1 carcinoma) xenograft” value in [16] is listed as “significantly inhibited the growth”. In addition, in series [17], the “activity against solid tumors” value is recorded as “particularly good activity against solid tumors”. For the same molecule, in series [18], the “solubility in aqueous solution” value is reported as “good solubility”. Further, the “stability in aqueous solution” value in series [19] is “good solubility and stability characteristics in aqueous solution”. The “activity against Klebsiella pneumonia” value in series [3] is “has activity against”. In addition, in [5], the “activity against Escherichia coli” value is given as “has activity against”. Also, in series [7], the “activity against Staphylococcus aureus” value is “has activity against”.
